These results are taken from patent US20100112012A1, “MODULATION OF IMMUNE RESPONSES” (CLEVELAND CLINIC FOUNDATION, priority 2005, published 2010).

Experiment [1] deals with p53. In words: Screening for p53-activating compounds, p53-responsive reporter in RCC45ConALacZ cells. The format is cell-based, human. As for the experimental part: Transient transfections. 2×10^5 cells were plated into 6-well plates and, after overnight incubation, transfected with Lipofectamin Plus reagent (Gibco BRL) with 0.5 μg of reporter plasmids (p21-ConALuc or pNF-κBLuc) in combination with different concentrations of plasmids expressing p53, Arf, Ss-IκB, or siHDM2. Corresponding empty vectors were added in all transfections up to 2 μg of total DNA. Normalization of transfection efficiency was done by adding 0.2 μg of pCMV-LacZ plasmid. Luciferase activity and β-galactosidase activity were measured in lysates prepared 48 hours after transfection with Cell Lysis Buffer (Promega) by the luciferase assay system (Promega) or β-galactosidase enzyme system (Promega). Luminometric and colorimetric reactions were read on the Wallack 1420 plate reader (Perkin Elmer). Stable transduction of reporters. 2×10^4 cells with integrated reporter were plated in 96-well plates. After overnight incubation, chemicals or media from lentivirus-producing cells were added. At different times, cell lysates were prepared using Reporter Lysis Buffer (Promega). Luciferase or β-galactosidase activity and protein concentration were measured in aliquots of cell lysates using standard kits (Promega, Luciferase and β-galactosidase assay systems, Biorad Protein Assay Kit).
The DiverSet library of 34,000 chemical compounds and focused libraries of structural analogues of selected hits were provided by Chembridge, Calif. Cell lines with p53- or NF-κB-responsive luciferase or β-galactosidase reporters were described previously (5, 7). For screening chemicals, 2×10^4 RCC45ConALacZ cells (RCC45-based p53 reporter cells) were plated per well of 96-well plates in 200 μL of phenol-red-free RPMI medium with standard additions. After overnight incubation, the compounds were added to final concentrations of 5-15 μM (0.2 μL of compound in DMSO per well). […] After 24 h, lysis buffer with ortho-nitrophenyl-β-D-galactopyranoside (ONPG) was added and β-galactosidase activity was estimated colorimetrically by a multiwell plate reader.

Experiment [2] concerns p53. Nature of the experiment: Phosphorylation status of p53 (Western analysis). Conditions: RCC45 cells, 9AA 5 μM, 16 h. The format is cell-based, human. The procedure: (§1) Cells were lysed in RIPA buffer (25 mM Tris HCl, pH 7.2, 125 mM NaCl, 1% NP40, 1% sodium deoxycholate, 1 mM EDTA) containing 1 mM PMSF (Sigma), 10 ug/ml of aprotinin (Sigma) and 10 ug/ml of leupeptin (Sigma). Protein concentrations were determined with the BioRad Dc protein assay kit. Equal protein amounts were run on gradient 4-20% precast gels (Novex) and blotted onto PVDF membranes (Amersham). The following antibodies were used: anti-p53—monoclonal mouse DO1 (Santa-Cruz), anti-p21—monoclonal mouse F-5 (Santa-Cruz), anti-mdm2—monoclonal mouse SMP14 (Santa-Cruz), anti-p65—(C20, Santa Cruz), anti-phospho-p65—(ser536, Cell Signaling), anti-IκBa—(C21, Santa Cruz), anti-p50—(NLS, Santa Cruz), anti-IKK1 (Cell Signaling), anti-γH2X (Cell Signaling), anti-actin (Santa Cruz). p53 phosphorylation status was analyzed using the phospho-p53 sampler kit from Cell Signaling according to the manufacturer's recommendations. HRP-conjugated secondary antibodies were purchased from Santa Cruz. Quantitation of the data was performed using Quantity One software from BioRad.

The next experiment has as its system IκBα. In words: IκBα level (Western analysis). Format: cell-based, human. The note with it: TNF 10 ng/ml, 9AA 10 μM. The procedure:
as §1

Experiment [3] has as its system androgen receptor, N-Myc, CLOCK/Bmal and Smad. In words: Reporter activity of other transcriptional activators. Format: cell-based. Conditions: data not shown.
In experiment [4] the test system is proinflammatory cytokines in the skin. Nature of the experiment: IL-1β, TNFα, CCL21 and IκBα expression in sensitized skin (RT-PCR, ELISA). The format is in vivo, BALB/c mice. Conditions: quinacrine on days −2 plus −1, 0.25% DNFB. As for the experimental part:
Naive and sensitized mouse skin (˜200 mg) was snap frozen in liquid nitrogen and then ground using a mortar and pestle in liquid nitrogen. Total RNA was extracted using the RNeasy Tissue Kit (Qiagen, Inc., Valencia, Calif.) according to the manufacturer's protocol. For synthesis of cDNA, 2 mg of total RNA from each sample was resuspended in 10 ml of the reaction buffer. cDNA synthesis was performed using M-MLV reverse transcriptase (Promega Corporation, Madison, Wis.) with random primers according to the manufacturer's protocol. The reaction was stopped by denaturing the enzyme at 99° C. for 5 min. and the mixture was diluted with distilled water to a final volume of 50 ml. Aliquots (3 ml) of the synthesized cDNA were added to 47 ml of PCR mixture, containing 1×PCR buffer, MgCl2 (1.5 mM), dNTP (0.2 mM each), primer mix (0.5 mM each) and 2.0 units of Taq DNA polymerase (all from Invitrogen Corp., Carlsbad, Calif.). PCR primers for mouse GAPDH, IκBα, TNF-α, IL-1β and CCL21 were purchased from Integrated DNA Technologies, Inc. (Coralville, Iowa) and contained the following sequences:
Amplification was initiated by 1 min of denaturation at 95° C. for 1 cycle. […] For each set of primers, dilutions of cDNA were amplified for 20-40 cycles to define optimal conditions for linearity and to permit semi-quantitative analysis of signal strength. […]

`CCN(CC)CCCC(C)Nc1c2ccc(Cl)cc2nc2ccc(OC)cc12` (centres unmarked) [QC, quinacrine]: the “activation of the p53-dependent reporter (p53 transactivation) in RCC” value in the experiment with p53 [1] is on record as “effective inducer of p53 transactivation in RCC”. Also, the “phosphorylation of p53” value with p53 [2] is reported as “did not induce the phosphorylation of p53”. Moreover, the “TNF-stimulated induction of IκBα” value with IκBα is recorded as “blocked”. In addition, the “activity of other transcriptional activators (androgen receptor, N-Myc, CLOCK/Bmal and Smad)” value in experiment [3] is recorded as “did not change the activity”. Besides, the “antigen-induced mRNA expression and protein production of proinflammatory cytokines in the skin” value in experiment [4] is “decreases antigen-induced mRNA expression and protein production of proinflammatory cytokines in the skin”.
